Measurements published in patent publication US20030176368A1, “Synthesis of epothilones, intermediates thereto and analogues thereof” (priority 2001, published 2003).
Like-named read-outs stand apart in the source and are kept apart here.

Key:
[1] = system: CCRF-CEM/VM1; assay: XTT cytotoxicity assay, teniposide-resistant CCRF-CEM/VM1 cells; type: cell-based, human
Description: (§1) XTT assay following 72 h inhibition. CCRF-CEM is a human T-cell acute lymphoblastic leukemia cell line. The CCRF-CEM/VBL100, CCRF-CEM/VM1, and CCRF-CEM/Taxol cell lines all overexpress P-glycoprotein and display a multidrug resistance phenotype to MDR-associated oncolytics. (Chou et al. Proc. Natl. Acad. Sci. USA 98:8113, 2001; incorporated herein by reference).
(§2) A typical experiment invovles culturing cells (e.g., CCRF-CEM) at an initial density of 2-5×10^4 cells per ml. They are maintained in a 5% CO2-humidified atmosphere at 37° C. in RPMI medium 1640 (GIBCO/BRL) containing penicillin (100 units/ml), streptomycin (100 μg/ml) (GIBCO/BRL), and 5% heat-inactivated fetal bovine serum. For cells that were grown in suspension (such as CCRF-CEM and its sublines), cytotoxicitiy is measured by using the 2,-3-bis(2-methoxy-4-nitro-5-sulfophenyl)-5 carboxanilide)-2H terazodium hydroxide (XTT)-microculture tetrazonium method in duplicate in 96-well microtiter plates. For both methods, the absorbance of each well is measured with a microplate reader (EL-340, Bio-Tek, Burlington, Vt.). Each run entails six or seven concentrations of the tested drugs. Dose-effect relationship data are analyzed with the median-effect plot.
(§3) The CCRF-CEM human T cells, acute lymphoblastic leukemic cells, its teniposide-resistant subline (CCRF-CEM/VM1) and vinblastine-resistant subline (CCRF-CEM/VBL100) are obtained from W. T. Beck (University of Illinois, Chicago, Ill.).

[2] = system: CCRF-CEM; assay: XTT cytotoxicity assay, CCRF-CEM cells; type: cell-based, human
Description: as §1, §2, §3

[3] = system: CCRF-CEM/Taxol; assay: XTT cytotoxicity assay, taxol-resistant CCRF-CEM/Taxol cells; type: cell-based, human
Description: as §1, §2

[4] = system: CCRF-CEM/VBL100; assay: XTT cytotoxicity assay, vinblastine-resistant CCRF-CEM/VBL100 cells; type: cell-based, human
Description: as §1, §2, §3

[5] = system: tubulin; assay: Tubulin binding: formation of microtubules in the presence of the compounds; type: biochemical; conditions: Example 5 Table 1
Excerpt: Indeed, the microtubule stabilizing ability closely parallels the observed cytotoxicity data.

[6] = Homo sapiens, CCRF-CEM, Example 5 Table 1, 72 h inhibition, read-out: In vitro Cytotoxicities (IC50) CCRF-CEM(C)
[7] = Homo sapiens, CCRF-CEM, Example 5 Table 1, 72 h inhibition, read-out: In vitro Cytotoxicities (IC50) C/Taxol
[8] = Homo sapiens, CCRF-CEM, Example 5 Table 1, 72 h inhibition, read-out: In vitro Cytotoxicities (IC50) C/VBL100

What does the source list for “10,11-dehydro-12,13-desoxyepothilone B [Epo490]”?
IC50 ([1]; XTT assay following 72 h inhibition, read-out: In vitro Cytotoxicities (IC50) CCRF-CEM/VM1): 35 nM; IC50 ([2]; Example 6 table, XTT assay following 72 h inhibition, read-out: CCRF-CEM (IC50 (μM))): 0.02 µM; IC50 ([2]; XTT assay following 72 h inhibition, read-out: In vitro Cytotoxicities (IC50) CCRF-CEM): 0.025 µM; IC50 ([3]; XTT assay following 72 h inhibition, read-out: In vitro Cytotoxicities (IC50) CCRF-CEM/Taxol): 32 nM; IC50 ([4]; Example 6 table, XTT assay following 72 h inhibition, read-out: CCRF-CEM/VBL (IC50 (μM))): 0.068 µM; IC50 ([4]; XTT assay following 72 h inhibition, read-out: In vitro Cytotoxicities (IC50) CCRF-CEM/VBL100): 0.091 µM

Which “% Tubulin Binding” value [5] does the source give for “10,11-dehydro-14,15-[18]desoxyepothilone B [[18]ddEpoB]” here?
The value was 51%.

`C/C1=C/C[C@@H](/C(C)=C/c2csc(C)n2)OC(=O)C[C@H](O)C(C)(C)C(=O)[C@H](C)[C@@H](O)[C@@H](C)CC2OC(C)(C)OC12` (stereo partly drawn) [10, 11-ketal-dEpoB] was tested. Which “activity in CCRF-CEM cell lines” value ([2]; Example 12, in words) did it give?
The value was “demonstrated activity”.

What about the “activity in CCRF-CEM cell lines resistant to Taxol” value ([3]; Example 12, in words) of the same compound?
The value was “demonstrated activity”.

With `C/C1=C/C[C@@H](/C(C)=C/c2csc(C)n2)OC(=O)C[C@H](O)C(C)(C)C(=O)[C@H](C)[C@@H](O)[C@@H](C)C[C@@H](O)[C@@H]1O` [12 (dihydroxy)] as the compound, how does the IC50 ([1]; Homo sapiens, CCRF-CEM, Example 5 Table 1, 72 h inhibition, read-out: In vitro Cytotoxicities (IC50) C/VM1) read?
Its IC50 is 2350 nM.

What about the IC50 [2, 6] of the same compound?
The IC50 was 1 µM.

And the IC50 [3, 7]?
Its IC50 is 16800 nM.

What about the IC50 [4, 8] of the same compound?
Its IC50 is 99 µM.

And the “% Tubulin Binding” value [5]?
The value was 31%.

For `C/C1=C\[C@@H]2C[C@H](C)[C@H](O2)[C@@H](C)C(=O)C(C)(C)[C@@H](O)CC(=O)O[C@H](/C(C)=C/c2csc(C)n2)CC1O` (stereo partly drawn) [13 (THF macrocycle)], which IC50 [2, 6] is on record?
The IC50 was 0.761 µM.

And the IC50 [3, 7]?
Its IC50 is 4240 nM.

What about the IC50 [4, 8] of the same compound?
The IC50 was 8.76 µM.

What about the “% Tubulin Binding” value [5] of the same compound?
The value was “inactive”.

Which IC50 [2, 6] does the source give for `C/C1=C/C[C@@H](/C(C)=C/c2csc(C)n2)OC(=O)C[C@H](O)C(C)(C)C(=O)[C@H](C)[C@@H](O)[C@@H](C)CC2CC12` (stereo partly drawn) [15 (cyclopropyl)] here?
Its IC50 is 0.077 µM.

What about the IC50 [4, 8] of the same compound?
Its IC50 is 0.141 µM.

What about the “% Tubulin Binding” value [5] of the same compound?
Its value is 84%.

With `CC1=C/C[C@@H](/C(C)=C/c2coc(C)n2)OC(=O)C[C@H](O)C(C)(C)C(=O)[C@H](C)[C@@H](O)[C@@H](C)C\C=C\1` [19-oxa epothilone 490] as the compound, how does the IC50 ([2]; Homo sapiens, CCRF-CEM, Example 9 table, read-out: Cell Growth Inhibition (IC50) CCRF-CEM) read?
The IC50 was 0.015 µM.

And the IC50 ([3]; Homo sapiens, CCRF-CEM, Example 9 table, read-out: Cell Growth Inhibition (IC50) CCRF-CEM/taxol)?
The IC50 was 40 nM.

And the IC50 ([4]; Homo sapiens, CCRF-CEM, Example 9 table, read-out: Cell Growth Inhibition (IC50) CCRF-CEM/VBL)?
Its IC50 is 0.06 µM.
